Key:
[1] = LPR test (corrosion inhibition, test conditions similar to ASTM D 2776)
Description: The products were also tested in the LPR test (test conditions similar to ASTM D 2776).

[2] = Shell wheel test (corrosion inhibition); conditions: salt water/petroleum mixture (9:1.5% NaCl solution, pH 3.5 with acetic acid), 40 rpm, 70° C., 24 hours; 50 ppm of a 40% solution of the inhibitor; from mass reduction vs blank
Description: The compounds according to the invention were tested as corrosion inhibitors in the Shell wheel test. Coupons of carbon steel (DIN 1.1203 having 15 cm^2 surface area) were immersed in a salt water/petroleum mixture (9:1.5% NaCl solution, adjusted to pH 3.5 using acetic acid) and subjected to this medium at a rotation rate of 40 rpm at 70° C. for 24 hours. The dosage of the inhibitor was 50 ppm of a 40% solution of the inhibitor. The protection values were calculated from the mass reduction of the coupons, based on a blank value.
In the table which follows, “comparison” refers to a commercial soya fatty acid amidopropyl-N,N-dimethylammonium carboxymethyl betaine described by EP-B-0 446 616 (prior art corrosion inhibitor).

[3] = Agitation foam method; type: physicochemical; conditions: 50 ml of a 3% aqueous solution in demineralized water, agitated 20 times within 10 sec in closed 100 ml cylinder
Description: The foam properties were tested with the agitation foam method. To this end, 50 ml of a 3% aqueous solution of the appropriate corrosion inhibitor in demineralized water were agitated in a closed 100 ml measuring cylinder 20 times within 10 sec. On completion of the agitation, the foaming behavior was assessed using the total volume of the solution (foam height) and the foam decomposition time (time until attainment of the starting volume of 50 ml).

Substance | Protection after 10 min [1] | Protection after 30 min [1] | Protection after 60 min [1] | ø Protection % [2] | Foaming behavior [3]
Dodecenyl-/tetradecenylsuccinimido-N,N-dimethylpropylammonium N-methylcarboxyl betaine [Betaine from example 7] | 72.5% | 92.0% | 98.1% | 84.9% | 
Pentapropylenesuccinimido-N,N-dimethylpropylammonium N-methylcarboxyl betaine [Betaine from example 9] | 77.9% | 94.0% | 99.8% | 90.4% | Weakly foaming
Polyisobutenylsuccinimido-N,N-dimethylpropylammonium N-methyl-carboxyl betaine [Betaine from example 10] | 79.1% | 92.3% | 99.2% | 90.1% | Weakly foaming
Polyisobutenylsuccinimido-N,N-dimethylpropylammonium N-methyl-carboxyl betaine [Betaine from example 11] | 61.9% | 70.6% | 80.6% | 80.6% | Weakly foaming
Polyisobutenylsuccinimido-N,N-dimethylpropylammonium N-methyl-carboxyl betaine [Betaine from example 12] | 70.0% | 79.4% | 86.3% | 82.7% | 
Tetrapropylenesuccinimido-N,N-dimethylpropylammonium N-methylcarboxyl betaine [Betaine from example 8] | 74.0% | 81.3% | 84.9% | 84.0% | 
soya fatty acid amidopropyl-N,N-dimethylammonium carboxymethyl betaine [Comparison, reference compound] | 45.9% | 59.2% | 64.2% | 75.4% | Strongly foaming

Reference: patent US7253138B2, “Corrosion and gas hydrate inhibitors having improved water solubility and increased biodegradability” (Clariant Produkte (Deutschland) GmbH, priority 2003, dated 2007)
